Laboratory results as given in PMC12376908, “Synthesis and radiolabelled evaluation of novel pyrimidine derivatives as dual α-amylase inhibitors and GIT-targeted molecular imaging probe” (RSC Advances, 2025).
Converted amounts (≈) assume the structure as drawn.

Target: T1, α-amylase
T1 construct: gene AMY2; porcine pancreas is only a guess from usual DNSA assay practice
Test: DNSA alpha-amylase inhibition assay, nonlinear regression
Format: biochemical
Conditions: enzyme source, substrate, pH and temperature not stated; triplicate

IC50: 34.60 ± 1.43 mg/L (≈ 91.4 µM)
Compound: CC(=O)C1=C(O)C=C2NC(=O)NC3=CC(O)=C(C(C)=O)C1(c1ccccc1)C23 (stereo not shown) [compound 1, 1,1′-(5,8-Dihydroxy-2-oxo-6a-phenyl-2,3,3a1,6a-tetrahydro-1H-perimidine-6,7-diyl)bis(ethan-1-one)]
